Among the data in patent US20130217702A1 (Richter Gedeon Nyrt., priority 2010, published 2013) are IC50 and Ki values, retold here.

Assay [1] has as its target T1, recombinant human B1 receptors (Homo sapiens, UniProt P46663).
T1 construct: host or cells: CHO (CHO-B1)
T1 sequence (P46663 1-353): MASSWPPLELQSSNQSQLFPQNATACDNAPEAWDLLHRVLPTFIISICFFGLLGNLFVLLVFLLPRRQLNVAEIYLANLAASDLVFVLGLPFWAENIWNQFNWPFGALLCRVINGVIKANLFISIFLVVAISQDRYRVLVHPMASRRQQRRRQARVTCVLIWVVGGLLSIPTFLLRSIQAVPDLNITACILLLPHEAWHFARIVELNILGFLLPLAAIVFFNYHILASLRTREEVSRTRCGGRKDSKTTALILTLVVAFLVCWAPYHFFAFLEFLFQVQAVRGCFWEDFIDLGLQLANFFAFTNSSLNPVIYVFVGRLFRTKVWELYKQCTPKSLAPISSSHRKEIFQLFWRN
The assay is described as follows: Functional assay: antagonist potency by cytosolic calcium measurement (plate reader fluorimeter) in CHO-B1 cells, agonist LysDABK. The class given is cell-based. The settings on record: CHO-B1 cells, inhibition of LysDABK (EC80)-evoked [Ca2+]i elevation; read-out: B1 func. The essentials: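 IC50 is the concentration giving half-maximal inhibition of the LysDABK (EC80) calcium response, fitted from at least three experiments. CHO cells stably expressing human B1 were dye-loaded, exposed to compound for 20-25 min, then read by fluo-4 fluorescence (ΔF/F) at 37 °C.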

Assay [2] has as its target T2, human recombinant bradykinin B1 receptor (Homo sapiens, UniProt P46663).
T2 construct: host or cells: CHO cells, clone hB1-A5
T2 sequence (P46663 1-353): T1 sequence (P46663 1-353)
The assay is described as follows: Human recombinant bradykinin B1 receptor competitive radioligand binding. The settings on record: hB1 expressed in CHO cells, [3H]-[Des-Arg10] Kallidin radioligand; read-out: B1 binding. The essentials:
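Membranes from CHO cells expressing hB1 (20 μg protein/tube) incubated 15 min at 25° C. with [3,4-prolyl-3,4-^3H(N)]-[Des-Arg^10] Kallidin; nonspecific binding defined with 10 μM Lys-des-Arg^9-Bradykinin. Bound label collected by filtration and counted. IC50 from ≥7-point curves in triplicate; Ki by Cheng-Prusoff.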

For the molecule `Cc1nc(-c2cc3cc(Cl)ccc3n2-c2ccc(CNC(=O)C3(NC(=O)c4cncc(C(F)(F)F)c4)CC3)cc2)no1` [Example 128, N-(1-{4-[5-Chloro-2-(5-methyl-[1,2,4]oxadiazol-3-yl)-indol-1-yl]-benzylcarbamoyl}-cyclopropyl)-5-trifluoromethyl-nicotinamide], the IC50 in assay [1] was below 20 nM. Also, in assay [2], the Ki was below 20 nM.
Consider `COc1ccc2c(c1)cc(C#N)n2-c1ccc(CNC(=O)C2(NC(=O)c3cncc(C(F)(F)F)c3)CC2)cc1` [Example 44, N-{1-[4-(2-Cyano-5-methoxy-indol-1-yl)-benzylcarbamoyl]-cyclopropyl}-5-trifluoromethyl-nicotinamide], for which, in assay [1], the IC50 is below 20 nM. Further, the Ki in assay [2] is below 20 nM.
For the molecule `COc1cc(C(=O)NC2(C(=O)NCc3ccc(-n4c(-c5cnco5)c(Cl)c5ccccc54)cc3)CC2)on1` [Example 16, 3-Methoxy-isoxazole-5-carboxylic acid (1-{4-[3-chloro-2-(1,3-oxazol-5-yl)-indol-1-yl]-benzylcarbamoyl}-cyclopropyl)-amide], the IC50 in assay [1] is below 20 nM. In addition, in assay [2], the Ki was below 20 nM.
Take `Cc1nc(-c2c(Cl)c3ccccc3n2-c2ccc(CNC(=O)C3(NC(=O)c4csnn4)CC3)cc2)no1` [Example 174, [1,2,3]Thiadiazole-4-carboxylic acid (1-{4-[3-chloro-2-(5-methyl-[1,2,4]oxadiazol-3-yl)-indol-1-yl]-benzylcarbamoyl}-cyclopropyl)-amide]: the IC50 in assay [1] was below 20 nM. Besides, the Ki in assay [2] is below 20 nM.
As to `Cn1nnc(-c2cc3ccccc3n2-c2ccc(CNC(=O)C3(NC(=O)C(F)(F)F)CC3)cc2)n1` [Example 36, 1-(2,2,2-Trifluoro-acetylamino)-cyclopropanecarboxylic acid 4-[2-(2-methyl-2H-tetrazol-5-yl)-indol-1-yl]-benzylamide], the IC50 in assay [1] is below 20 nM. The Ki in assay [2] is below 20 nM.
As for `Cn1nnc(-c2c(Cl)c3ccccc3n2-c2ccc(CNC(=O)C3(NC(=O)c4cc(C5CC5)on4)CC3)cc2)n1` [Example 24, 5-Cyclopropyl-isoxazole-3-carboxylic acid (1-{4-[3-chloro-2-(2-methyl-2H-tetrazol-5-yl)-indol-1-yl]-benzylcarbamoyl}-cyclopropyl)-amide], in assay [1], the IC50 is below 20 nM. Besides, the Ki in assay [2] is below 20 nM.
Turning to `Cc1nc(-c2cc3cc(F)ccc3n2-c2ccc(CNC(=O)C3(NC(=O)c4cncc(C(F)(F)F)c4)CC3)c(F)c2)no1` [Example 132, N-(1-{2-Fluoro-4-[5-fluoro-2-(5-methyl-[1,2,4]oxadiazol-3-yl)-indol-1-yl]-benzylcarbamoyl}-cyclopropyl)-5-trifluoromethyl-nicotinamide], in assay [1], the IC50 was below 20 nM. Besides, in assay [2], the Ki was below 20 nM.
As to `Cc1nc(-c2c(Cl)c3ccccc3n2-c2ccc(CNC(=O)C3(NC(=O)CC(F)(F)F)CC3)cc2)no1` [Example 163, 1-(3,3,3-Trifluoro-propionylamino)-cyclopropanecarboxylic acid 4-[3-chloro-2-(5-methyl-[1,2,4]oxadiazol-3-yl)-indol-1-yl]-benzylamide], the IC50 in assay [1] was below 20 nM. Besides, the Ki in assay [2] is below 20 nM.
As for `COc1cc(C(=O)NC2(C(=O)NCc3ccc(-n4c(-c5noc(C)n5)c(Cl)c5ccccc54)cc3)CC2)on1` [Example 9, 3-Methoxy-isoxazole-5-carboxylic acid (1-{4-[3-chloro-2-(5-methyl-[1,2,4]oxadiazol-3-yl)-indol-1-yl]-benzylcarbamoyl}-cyclopropyl)-amide], in assay [1], the IC50 was below 20 nM. In assay [2], the Ki is below 20 nM.
As for `COC(=O)c1c(Cl)c2c(F)cccc2n1-c1ccc(CNC(=O)C2(NC(=O)c3cc(OC)no3)CC2)cc1` [Example 68, 3-Chloro-4-fluoro-1-{4-[({1-[(3-methoxy-isoxazole-5-carbonyl)-amino]-cyclo-propanecarbonyl}-amino)-methyl]-phenyl}-1H-indole-2-carboxylic acid methyl ester], the IC50 in assay [1] was below 20 nM. The Ki in assay [2] is below 20 nM.
For `Cc1nc(-c2c(Cl)c3ccccc3n2-c2ccc(CNC(=O)C3(NC(=O)c4cccc(C(F)(F)F)c4F)CC3)cc2)no1` [Example 92, N-(1-{4-[3-Chloro-2-(5-methyl-[1,2,4]oxadiazol-3-yl)-indol-1-yl]-benzylcarbamoyl}-cyclopropyl)-2-fluoro-3-trifluoromethyl-benzamide], the IC50 in assay [1] is below 20 nM. The Ki in assay [2] was below 20 nM.
As for `Cc1nc(-c2c(Cl)c3ccccc3n2-c2ccc(CNC(=O)C3(NC(=O)C4CC4C)CC3)cc2)no1` (stereo not drawn) [Example 138, 2-Methyl-cyclopropanecarboxylic acid (1-{4-[3-chloro-2-(5-methyl-[1,2,4]oxadiazol-3-yl)-indol-1-yl]-benzylcarbamoyl}-cyclopropyl)-amide], the IC50 in assay [1] is 20 to 100 nM. In assay [2], the Ki was below 20 nM.
The like results for `Cc1cc(C(=O)NC2(C(=O)NCc3ccc(-n4c(-c5noc(C)n5)c(Cl)c5cc(F)ccc54)cc3)CC2)no1` [Example 88, 5-Methyl-isoxazole-3-carboxylic acid (1-{4-[3-chloro-5-fluoro-2-(5-methyl-[1,2,4]oxadiazol-3-yl)-indol-1-yl]-benzylcarbamoyl}-cyclopropyl)-amide] were, in that order, below 20 nM and below 20 nM.
The matching figures for `Cc1nc(-c2c(Cl)c3ccccc3n2-c2ccc(CNC(=O)C3(NC(=O)C4CCC(=O)N4)CC3)cc2)no1` (stereo not drawn) [Example 168, 5-Oxo-pyrrolidine-2-carboxylic acid (1-{4-[3-chloro-2-(5-methyl-[1,2,4]oxadiazol-3-yl)-indol-1-yl]-benzylcarbamoyl}-cyclopropyl)-amide]: 20 to 100 nM and below 20 nM.
`COc1ccc2c(c1)c(Cl)c(-c1nc(C)no1)n2-c1ccc(CNC(=O)C2(NC(=O)c3cncc(C(F)(F)F)c3)CC2)cc1` [Example 50, N-(1-{4-[3-Chloro-5-methoxy-2-(3-methyl-[1,2,4]oxadiazol-5-yl)-indol-1-yl]-benzyl-carbamoyl}-cyclopropyl)-5-trifluoromethyl-nicotinamide]: the IC50 in assay [1] is below 20 nM. Also, the Ki in assay [2] was below 20 nM.
Take `COc1ccc2c(c1)cc(-c1nnc(C)o1)n2-c1ccc(CNC(=O)C2(NC(=O)c3cc(OC)no3)CC2)cc1` [Example 126, 3-Methoxy-isoxazole-5-carboxylic acid (1-{4-[5-methoxy-2-(5-methyl-[1,3,4]oxadiazol-2-yl)-indol-1-yl]-benzylcarbamoyl}-cyclopropyl)-amide]: the IC50 in assay [1] was in the range of 20 to 100 nM. Also, in assay [2], the Ki was below 20 nM.
The like results for `COc1cc(C(=O)NC2(C(=O)NCc3ccc(-n4c(C#N)cc5cc(Cl)ccc54)cc3)CC2)on1` [Example 43, 3-Methoxy-isoxazole-5-carboxylic acid {1-[4-(5-chloro-2-cyano-indol-1-yl)-benzylcarbamoyl]-cyclopropyl}-amide] were, in that order, 20 to 100 nM and below 20 nM.
The matching figures for `Cc1noc(-c2c(Cl)c3ccccc3n2-c2ccc(CNC(=O)C3(NC(=O)C(F)(F)F)CC3)cc2)n1` [Example 194, 1-(2,2,2-Trifluoro-acetylamino)-cyclopropanecarboxylic acid 4-[3-chloro-2-(3-methyl-[1,2,4]oxadiazol-5-yl)-indol-1-yl]-benzylamide]: below 20 nM and below 20 nM.
